Experimental data from PubChem BioAssay (NCI).
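Assay format: 96-well plates, 48-hour exposure. The concentration for 50% growth inhibition is given as GI50. TGI: total growth inhibition.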

What follows are compounds tested on HT29 colon (assay: inhibition of tumour cell growth, NCI panel, 48 h).

Point of comparison: CN(C)CCC(/C=C/c1ccccc1)=N\Nc1ccc(Cl)cc1Cl, TGI 27.2 µM. Against it:
- COC(=O)CC1NC(=O)C1C1(C)OCCO1 (centres undefined) — higher, > 100 µM
- COC(CN1C=C(Sc2ccccc2)CC1)OC — 2-fold higher, 54.2 µM
- COc1ccc(C=O)c(NC(=O)C(C)C)c1 — higher, > 100 µM
- Cc1cc2c(c(C(=O)O)c1C)-c1cccc(F)c1C2=O — higher, > 100 µM
- Cc1ccc(NC(=O)c2ccccc2C(=O)O)cc1C — higher, > 100 µM
- Cc1ccc(S(=O)OC2C3CC4CC(C3)CC2C4)cc1 (centres undefined) — higher, > 100 µM
- COc1ccc(-c2cc(=O)c3c(OC)c(OC)c(OC)c(OC)c3o2)cc1 — higher, > 100 µM
- CN(C)c1ccc(/C=C2\C=Cc3ccccc32)cc1 — higher, > 100 µM
- COc1cc2nc(NCCCCCNC(=O)c3ccco3)nc(N)c2cc1OC — higher, > 100 µM
- C/C=C(\C)c1cc(O)c(C)c2c1Oc1cc(O)c(Cl)c(C)c1C(=O)O2 — within 1.5-fold, 34.7 µM
- COC(=O)C(C)(C)N=CN(C)C — higher, > 100 µM
- O=c1[nH]cnc2c(C3NC(CO)C(O)C3O)c[nH]c12 (centres undefined) — higher, > 100 µM
- Cc1cc(N(CCC#N)CCC#N)ccc1/C=C1/N=C(c2ccccc2)N(N)C1=O — higher, > 100 µM
- CCOC1=C2N=C(Cc3ccccc3F)N=C2C(=O)c2ccccc21 — higher, > 100 µM
- CNS(=O)(=O)NNS(=O)(=O)c1ccc(Cl)cc1 — higher, > 100 µM
- C=C1CCC2[C@@H](CCC3[C@]2(C)CCC[C@]3(C)C(=O)OC)[C@@H]1CC=O (some centres undefined) — 3-fold higher, 81 µM
- CCCCCCCCCCCCCP(=O)(O)NCC(N)=O — higher, > 100 µM
- CN1COc2c(n(C)c(=O)[nH]c2=O)C1 — higher, > 100 µM
- CC1(C)OCC(C(O)C2OC(C)(C)OC2/C=N\O)O1 (centres undefined) — higher, > 100 µM
- CCCCCCN(N)C(=O)CC#N — higher, > 100 µM
- O=C(O)/C(Cl)=C(\Cl)C(=O)Nc1ccc(Cl)c(Cl)c1Cl — within 1.5-fold, 39.9 µM
- COc1ccc(C(Cl)=C(c2ccc(OCCN(C)C)cc2)c2ccc(OCCN(C)C)cc2)cc1 — 9.1-fold lower, 3 µM
- CC1(C)C2CCC13CS(=O)(=O)N1O[C@]13C(=O)O2 (some centres undefined) — higher, > 100 µM

In the case of O=c1[nH]cnc2c(C3NC(CO)C(O)C3O)c[nH]c12 (centres undefined), the GI50 is reported as > 100 µM.

The compounds below were run on SK-OV-3 ovarian (assay: inhibition of tumour cell growth, NCI panel, 48 h).

Point of comparison: N#Cc1ccc(N=Cc2c([O-])ccc3ccccc23)cc1.[C-]#[O+].[C-]#[O+].[Ir], GI50 21.1 µM. Against it:
- Cc1nc2ccccc2c(/C=C/c2ccc(Br)cc2)c1C(=O)/C=C/c1ccccc1 — 11-fold lower, 1.88 µM
- O=c1[nH]cnc2c(C3NC(CO)C(O)C3O)c[nH]c12 (centres undefined) — higher, > 100 µM
- C[C@@H]1O[C@@H](OC[C@H]2O[C@@H](OCCc3ccc(O)c(O)c3)[C@H](O)[C@@H](O)[C@@H]2OC(=O)/C=C/c2ccc(O)c(O)c2)[C@H](O)[C@H](O)[C@H]1O — higher, > 100 µM
- C=C1CCC2[C@@H](CCC3[C@]2(C)CCC[C@]3(C)C(=O)OC)[C@@H]1CC=O (some centres undefined) — higher, > 100 µM

Point of comparison: Cc1nc2ccccc2c(/C=C/c2ccc(Br)cc2)c1C(=O)/C=C/c1ccccc1, TGI 4.15 µM. Against it:
- CC1CN1c1c(C(=O)/C=C/c2ccccc2)c(-c2ccccc2)nn(C)c1=O (centres undefined) — higher, > 100 µM
- c1ccc(P(=Nc2ccccc2N=P(c2ccccc2)(c2ccccc2)c2ccccc2)(c2ccccc2)c2ccccc2)cc1 — within 1.5-fold, 3.52 µM
- COCCOCOc1ccc(OCOCCOC)c2c1C(=O)c1ccccc1C2=O — higher, > 100 µM
- CCO/C=C1\N=C(c2ccccc2Br)OC1=O — higher, > 100 µM
- O=P1(Oc2ccccc2)C(c2ccccc2)C(c2ccccc2)=NN1c1ccccc1 (centres undefined) — 13-fold higher, 54.4 µM
- CCOC(=O)C(=O)Nc1cc(Cl)ccc1Cl — higher, > 100 µM
- N#Cc1ccc(N=Cc2c([O-])ccc3ccccc23)cc1.[C-]#[O+].[C-]#[O+].[Ir] — 9.4-fold higher, 39.1 µM
- [N-]=[N+]=C1C(=O)C2CC3CC(C2)CC1C3 — higher, > 100 µM
- COC(CN1C=C(Sc2ccccc2)CC1)OC — 22-fold higher, 93 µM
- CN(C)CCC(/C=C/c1ccccc1)=N\Nc1ccc(Cl)cc1Cl — 5.5-fold higher, 22.8 µM
- COc1ccc(C=O)c(NC(=O)C(C)C)c1 — higher, > 100 µM
- Cc1cc2c(c(C(=O)O)c1C)-c1cccc(F)c1C2=O — higher, > 100 µM
- Cc1ccc(NC(=O)c2ccccc2C(=O)O)cc1C — higher, > 100 µM
- Cc1ccc(S(=O)OC2C3CC4CC(C3)CC2C4)cc1 (centres undefined) — higher, > 100 µM
- COc1ccc(-c2cc(=O)c3c(OC)c(OC)c(OC)c(OC)c3o2)cc1 — higher, > 100 µM
- CN(C)c1ccc(/C=C2\C=Cc3ccccc32)cc1 — higher, > 100 µM
- COc1cc2nc(NCCCCCNC(=O)c3ccco3)nc(N)c2cc1OC — higher, > 100 µM
- COC(=O)C(C)(C)N=CN(C)C — higher, > 100 µM
- O=c1[nH]cnc2c(C3NC(CO)C(O)C3O)c[nH]c12 (centres undefined) — higher, > 100 µM
- C[C@@H]1O[C@@H](OC[C@H]2O[C@@H](OCCc3ccc(O)c(O)c3)[C@H](O)[C@@H](O)[C@@H]2OC(=O)/C=C/c2ccc(O)c(O)c2)[C@H](O)[C@H](O)[C@H]1O — higher, > 100 µM
- Cc1cc(N(CCC#N)CCC#N)ccc1/C=C1/N=C(c2ccccc2)N(N)C1=O — higher, > 100 µM
- CNS(=O)(=O)NNS(=O)(=O)c1ccc(Cl)cc1 — higher, > 100 µM
- C=C1CCC2[C@@H](CCC3[C@]2(C)CCC[C@]3(C)C(=O)OC)[C@@H]1CC=O (some centres undefined) — higher, > 100 µM
- CCCCCCCCCCCCCP(=O)(O)NCC(N)=O — higher, > 100 µM
- CN1COc2c(n(C)c(=O)[nH]c2=O)C1 — higher, > 100 µM
- CC1(C)OCC(C(O)C2OC(C)(C)OC2/C=N\O)O1 (centres undefined) — higher, > 100 µM
- CCCCCCN(N)C(=O)CC#N — higher, > 100 µM
- O=C(O)/C(Cl)=C(\Cl)C(=O)Nc1ccc(Cl)c(Cl)c1Cl — 8.5-fold higher, 35.2 µM
- COc1ccc(C(Cl)=C(c2ccc(OCCN(C)C)cc2)c2ccc(OCCN(C)C)cc2)cc1 — 1.9-fold higher, 7.69 µM

The compounds below were run on PC-3 prostate (assay: inhibition of tumour cell growth, NCI panel, 48 h).

Cc1ccc(NC(=O)c2ccccc2C(=O)O)cc1C and C[C@@H]1O[C@@H](OC[C@H]2O[C@@H](OCCc3ccc(O)c(O)c3)[C@H](O)[C@@H](O)[C@@H]2OC(=O)/C=C/c2ccc(O)c(O)c2)[C@H](O)[C@H](O)[C@H]1O cannot be ordered by TGI: > 100 µM for the first, > 100 µM for the second.

O=c1[nH]cnc2c(C3NC(CO)C(O)C3O)c[nH]c12 (centres undefined) was tested, and the TGI was > 100 µM.

O=c1[nH]cnc2c(C3NC(CO)C(O)C3O)c[nH]c12 (centres undefined) and C[C@@H]1O[C@@H](OC[C@H]2O[C@@H](OCCc3ccc(O)c(O)c3)[C@H](O)[C@@H](O)[C@@H]2OC(=O)/C=C/c2ccc(O)c(O)c2)[C@H](O)[C@H](O)[C@H]1O cannot be ordered by GI50: > 100 µM for the first, > 100 µM for the second.

Each compound was assayed on NCI-H226 lung (assay: inhibition of tumour cell growth, NCI panel, 48 h).

Cc1nc2ccccc2c(/C=C/c2ccc(Br)cc2)c1C(=O)/C=C/c1ccccc1 gave a GI50 of 1.67 µM.

Point of comparison: CC1CN1c1c(C(=O)/C=C/c2ccccc2)c(-c2ccccc2)nn(C)c1=O (centres undefined), TGI 45.3 µM. Against it:
- Cc1nc2ccccc2c(/C=C/c2ccc(Br)cc2)c1C(=O)/C=C/c1ccccc1 — 14-fold lower, 3.35 µM
- c1ccc(P(=Nc2ccccc2N=P(c2ccccc2)(c2ccccc2)c2ccccc2)(c2ccccc2)c2ccccc2)cc1 — 33-fold lower, 1.38 µM
- COCCOCOc1ccc(OCOCCOC)c2c1C(=O)c1ccccc1C2=O — higher, > 100 µM
- CCO/C=C1\N=C(c2ccccc2Br)OC1=O — higher, > 100 µM
- O=P1(Oc2ccccc2)C(c2ccccc2)C(c2ccccc2)=NN1c1ccccc1 (centres undefined) — within 1.5-fold, 55 µM
- CCOC(=O)C(=O)Nc1cc(Cl)ccc1Cl — higher, > 100 µM
- [N-]=[N+]=C1C(=O)C2CC3CC(C2)CC1C3 — higher, > 100 µM
- COC(=O)CC1NC(=O)C1C1(C)OCCO1 (centres undefined) — higher, > 100 µM
- COC(CN1C=C(Sc2ccccc2)CC1)OC — higher, > 100 µM
- COc1ccc(C=O)c(NC(=O)C(C)C)c1 — not separable, > 10 µM
- Cc1cc2c(c(C(=O)O)c1C)-c1cccc(F)c1C2=O — higher, > 100 µM
- Cc1ccc(NC(=O)c2ccccc2C(=O)O)cc1C — higher, > 100 µM
